The values that follow come from PubChem BioAssay AID248 (DTP/NCI, 2004).

The experiment concerns L1210 leukemia ip in BDF1 mice, survival T/C. In words: NCI In Vivo Anticancer Drug Screen. Data for tumor model L1210 Leukemia (intraperitoneal) in B6D2F1 (BDF1) mice. As to conditions: endpoint: mean survival time, higher = longer survival. The procedure, abridged: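 Ratio derived from survival: compound-dosed mice over vehicle-dosed mice, all bearing a transplantable tumor.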

The mark [1] stands for this setting: dose: 100.0 mg/kg/injection, schedule: Q01DX009 (ip), vehicle: Klucel (hydroxypropylcellulose) (HPC).
The mark [2] stands for this setting: dose: 200.0 mg/kg/injection, schedule: Q01DX009 (ip), vehicle: Klucel (hydroxypropylcellulose) (HPC).
[3] abbreviates: dose: 400.0 mg/kg/injection, schedule: Q01DX009 (ip), vehicle: Klucel (hydroxypropylcellulose) (HPC).
The mark [4] stands for this setting: dose: 100.0 mg/kg/injection, schedule: Q01DX001 (ip), vehicle: other.
The mark [5] stands for this setting: dose: 200.0 mg/kg/injection, schedule: Q01DX001 (ip), vehicle: other.
Setting [6] is: dose: 400.0 mg/kg/injection, schedule: Q01DX001 (ip), vehicle: other.
Where [7] appears, read: dose: 200.0 mg/kg/injection, schedule: Q01DX001 (ip), vehicle: saline with Tween-80.
[8] abbreviates: dose: 400.0 mg/kg/injection, schedule: Q01DX001 (ip), vehicle: saline with Tween-80.
Where [9] appears, read: dose: 100.0 mg/kg/injection, schedule: Q04DX002 (ip), vehicle: Klucel (hydroxypropylcellulose) (HPC).
[10] abbreviates: dose: 400.0 mg/kg/injection, schedule: Q04DX002 (ip), vehicle: Klucel (hydroxypropylcellulose) (HPC).
The mark [11] stands for this setting: dose: 100.0 mg/kg/injection, schedule: Q04DX003 (ip), vehicle: saline with Tween-80.
Where [12] appears, read: dose: 200.0 mg/kg/injection, schedule: Q04DX003 (ip), vehicle: saline with Tween-80.
[13] abbreviates: dose: 400.0 mg/kg/injection, schedule: Q04DX003 (ip), vehicle: saline with Tween-80.
Where [14] appears, read: dose: 100.0 mg/kg/injection, schedule: Q04DX003 (ip), vehicle: saline.
The mark [15] stands for this setting: dose: 200.0 mg/kg/injection, schedule: Q04DX003 (ip), vehicle: saline.
[16] abbreviates: dose: 400.0 mg/kg/injection, schedule: Q04DX003 (ip), vehicle: saline.
[17] abbreviates: dose: 100.0 mg/kg/injection, schedule: Q01DX001 (ip), vehicle: saline.
The mark [18] stands for this setting: dose: 200.0 mg/kg/injection, schedule: Q01DX001 (ip), vehicle: saline.
[19] abbreviates: dose: 400.0 mg/kg/injection, schedule: Q01DX001 (ip), vehicle: saline.
The mark [20] stands for this setting: dose: 100.0 mg/kg/injection, schedule: Q04DX002 (ip), vehicle: saline.

Structures are written as SMILES. “And” between values parts separate entries of the source, which are not always exact repeats. Equal entries are not always repeated. Inconclusive results and toxic doses are left out.

As to `Cc1ccc(S(=O)(=O)OC2C(O)OCC3OC(C)(C)OC32)cc1` (configuration not stated), the T/C was 95 % of control (dose: 100.0 mg/kg/injection, schedule: Q01DX009 (ip), vehicle: saline with Tween-80); 88 % of control (dose: 200.0 mg/kg/injection, schedule: Q01DX009 (ip), vehicle: saline with Tween-80); 88 % of control (dose: 400.0 mg/kg/injection, schedule: Q01DX009 (ip), vehicle: saline with Tween-80).

Regarding `CCOc1ccccc1NC(=O)c1cccc(C(=O)Nc2ccccc2OCC)c1`, the T/C is, setting by setting: under setting [1], 92 % of control; (dose: 100.0 mg/kg/injection, schedule: Q04DX003 (ip), vehicle: Klucel (hydroxypropylcellulose) (HPC)) 90 % of control; under setting [2], 88 % of control; (dose: 200.0 mg/kg/injection, schedule: Q04DX003 (ip), vehicle: Klucel (hydroxypropylcellulose) (HPC)) 96 % of control; under setting [3], 88 % of control; (dose: 400.0 mg/kg/injection, schedule: Q04DX003 (ip), vehicle: Klucel (hydroxypropylcellulose) (HPC)) 90 % of control.

Take `Nc1ccc2c(c1)C(=O)CCCC2`: the T/C by setting is: (dose: 100.0 mg/kg/injection, schedule: Q01DX001 (ip), vehicle: carboxymethylcellulose (CMC)) 102 % of control; (dose: 200.0 mg/kg/injection, schedule: Q01DX001 (ip), vehicle: carboxymethylcellulose (CMC)) 104 % of control; (dose: 400.0 mg/kg/injection, schedule: Q01DX001 (ip), vehicle: carboxymethylcellulose (CMC)) 98 % of control.

Take `CC1CN(C(=S)Nc2cccc3ccccc23)CC(C)O1` (configuration not stated): the T/C runs as follows: under setting [1], 100 % of control; under setting [2], 97 % of control; under setting [3], 95 % of control.

As to `O=C1C=C(C2CCCCC2)C(=O)C2CCCCC12` (configuration not stated), the T/C (dose: 100.0 mg/kg/injection, schedule: Q01DX001 (ip), vehicle: Klucel (hydroxypropylcellulose) (HPC)) was 107 % of control; the T/C (dose: 100.0 mg/kg/injection, schedule: Q01DX009 (ip), vehicle: saline) is 92 % of control; the T/C (dose: 200.0 mg/kg/injection, schedule: Q01DX001 (ip), vehicle: Klucel (hydroxypropylcellulose) (HPC)) was 105 % of control; the T/C (dose: 200.0 mg/kg/injection, schedule: Q01DX009 (ip), vehicle: saline) was 91 % of control; the T/C (dose: 400.0 mg/kg/injection, schedule: Q01DX001 (ip), vehicle: Klucel (hydroxypropylcellulose) (HPC)) is 114 % of control; the T/C (dose: 400.0 mg/kg/injection, schedule: Q01DX009 (ip), vehicle: saline) was 86 % of control.

In the case of `CC(C)OC(=O)c1ccccc1-c1ccccc1`, the T/C was 102 % of control under setting [4], 96 % of control under setting [5] and 87 % of control under setting [6].

For `O=C(O)c1ccc(CCc2ccc(Cl)c(S(=O)(=O)F)c2)cc1`, the T/C is, setting by setting: (dose: 100.0 mg/kg/injection, schedule: Q01DX001 (ip), vehicle: saline with Tween-80) 94 % of control; under setting [7], 92 % of control; under setting [8], 91 % of control.

`CCCCCCCCCCC(CCCCCCC)(CCCCCCCC)CCCCCCCCC` (configuration not stated): the T/C runs as follows: (dose: 133.0 mg/kg/injection, schedule: Q01DX001 (ip), vehicle: saline with Tween-80) 102 % of control; under setting [7], 107 % of control; (dose: 300.0 mg/kg/injection, schedule: Q01DX001 (ip), vehicle: saline with Tween-80) 102 % of control; under setting [8], 101 % of control.

As for `CC(=O)Oc1c2ccccc2cc2ccccc12`, the T/C under setting [9] was 114 % of control and the T/C under setting [10] was 118 % of control.

For the compound `CCOC1c2ccccc2-c2ccccc2N1C(=O)c1ccccc1` (configuration not stated), the T/C is 98 % of control (dose: 50.0 mg/kg/injection, schedule: Q04DX003 (ip), vehicle: saline with Tween-80); 106 % of control under setting [11]; 97 % of control and 109 % of control under setting [12]; 103 % of control under setting [13].

For `CC1(C)N=C(N)N=C(N)N1c1ccc(Cl)c(Cl)c1`, the T/C was 111 % of control (dose: 1.0 mg/kg/injection, schedule: Q01DX009 (ip), vehicle: saline); 109 % of control (dose: 1.25 mg/kg/injection, schedule: Q01DX009 (ip), vehicle: saline); 109 % of control and 117 % of control (dose: 2.5 mg/kg/injection, schedule: Q01DX009 (ip), vehicle: saline); 105 % of control (dose: 5.0 mg/kg/injection, schedule: Q01DX001 (ip), vehicle: saline); 119 % of control (dose: 5.0 mg/kg/injection, schedule: Q01DX009 (ip), vehicle: saline); 102 % of control and 106 % of control (dose: 10.0 mg/kg/injection, schedule: Q01DX001 (ip), vehicle: saline). Moreover, the T/C (dose: 10.0 mg/kg/injection, schedule: Q01DX009 (ip), vehicle: saline) is 117 % of control and 118 % of control; the T/C (dose: 20.0 mg/kg/injection, schedule: Q01DX001 (ip), vehicle: saline) is 105 % of control and 106 % of control; the T/C (dose: 20.0 mg/kg/injection, schedule: Q01DX009 (ip), vehicle: saline) was 92 % of control; the T/C (dose: 36.0 mg/kg/injection, schedule: Q01DX009 (ip), vehicle: saline) was 88 % of control; the T/C (dose: 40.0 mg/kg/injection, schedule: Q01DX001 (ip), vehicle: saline) is 107 % of control and 92 % of control.

Consider `C[S+]1C=Cc2ccccc2C1c1ccc(Cl)cc1` (configuration not stated), for which the T/C (dose: 25.0 mg/kg/injection, schedule: Q04DX002 (ip), vehicle: Klucel (hydroxypropylcellulose) (HPC)) was 117 % of control.

As for `COc1cc([N+](=O)[O-])c(O)cc1O`, the T/C under setting [14] was 101 % of control, the T/C under setting [15] was 100 % of control and the T/C under setting [16] is 96 % of control.

Regarding `CCCCCC(C)O[Si](C)C1(C)CCCCC1` (configuration not stated), the T/C is 94 % of control under setting [11], 94 % of control under setting [12] and 104 % of control under setting [13].

For the compound `S=P(c1cccc2ccccc12)(c1cccc2ccccc12)c1cccc2ccccc12`, the T/C by setting is: under setting [17], 97 % of control; under setting [18], 95 % of control; under setting [19], 95 % of control.

With `O=C1CCOP(=O)(NCCCl)N1CCCl` (configuration not stated), the T/C by setting is: under setting [20], 115 % of control; (dose: 400.0 mg/kg/injection, schedule: Q04DX002 (ip), vehicle: saline) 175 % of control.

Consider `CCC(C)N=C(N)C(N)=NC(C)CC` (configuration not stated), for which the T/C is 103 % of control under setting [20] and 103 % of control (dose: 200.0 mg/kg/injection, schedule: Q04DX002 (ip), vehicle: saline).

As for `CC(C)(C)C1CC(Cl)C(=O)C(Cl)C1` (configuration not stated), the T/C runs as follows: under setting [17], 104 % of control; under setting [14], 96 % of control; under setting [18], 94 % of control; under setting [15], 112 % of control; under setting [19], 88 % of control; under setting [16], 94 % of control.

For the compound `Nc1nc(=O)[nH]c(N)c1N`, the T/C by setting is: (dose: 50.0 mg/kg/injection, schedule: Q04DX003 (ip), vehicle: saline) 91 % of control; under setting [17], 98 % of control; under setting [14], 91 % of control; under setting [18], 114 % of control; under setting [15], 88 % of control.

As to `O=C(O)C(Cc1ccc(O)cc1)N(S(=O)(=O)Cc1ccccc1)S(=O)(=O)Cc1ccccc1` (configuration not stated), the T/C is 88 % of control under setting [4]; 95 % of control (dose: 100.0 mg/kg/injection, schedule: Q04DX003 (ip), vehicle: other); 97 % of control under setting [5]; 98 % of control (dose: 200.0 mg/kg/injection, schedule: Q04DX003 (ip), vehicle: other); 108 % of control under setting [6]; 88 % of control (dose: 400.0 mg/kg/injection, schedule: Q04DX003 (ip), vehicle: other).

Consider `O=C(O)c1c2ccccc2nc2[nH]c(=O)[nH]c(=O)c12`, for which the T/C reads like this: under setting [9], 97 % of control; (dose: 200.0 mg/kg/injection, schedule: Q04DX002 (ip), vehicle: Klucel (hydroxypropylcellulose) (HPC)) 108 % of control; under setting [10], 108 % of control.
